Data published in ChEMBL document CHEMBL4406807, “Discovery of 3,4,6-Trisubstituted Piperidine Derivatives as Orally Active, Low hERG Blocking Akt Inhibitors via Conformational Restriction and Structure-Based Design” (J Med Chem, 2019).

How the values were obtained:
[1] = system: HCT-116; assay: cells; settings: Homo sapiens, HCT-116, 72 h
[2] = target: RAC-alpha serine/threonine-protein kinase (Homo sapiens, UniProt P31749)
Description: Inhibition of human Akt1 expressed in Escherichia coli using STK Substrate 2-biotin as substrate incubated for 1 hr by HTRF assay

[3] = system: OVCAR-8; assay: Antiproliferative activity against human OVCAR8 cells; type: functional, cell-based
[4] = system: LNCaP; assay: Antiproliferative activity against human LNCAP cells; type: functional, cell-based

Sequence of RAC-alpha serine/threonine-protein kinase (P31749 whole entry): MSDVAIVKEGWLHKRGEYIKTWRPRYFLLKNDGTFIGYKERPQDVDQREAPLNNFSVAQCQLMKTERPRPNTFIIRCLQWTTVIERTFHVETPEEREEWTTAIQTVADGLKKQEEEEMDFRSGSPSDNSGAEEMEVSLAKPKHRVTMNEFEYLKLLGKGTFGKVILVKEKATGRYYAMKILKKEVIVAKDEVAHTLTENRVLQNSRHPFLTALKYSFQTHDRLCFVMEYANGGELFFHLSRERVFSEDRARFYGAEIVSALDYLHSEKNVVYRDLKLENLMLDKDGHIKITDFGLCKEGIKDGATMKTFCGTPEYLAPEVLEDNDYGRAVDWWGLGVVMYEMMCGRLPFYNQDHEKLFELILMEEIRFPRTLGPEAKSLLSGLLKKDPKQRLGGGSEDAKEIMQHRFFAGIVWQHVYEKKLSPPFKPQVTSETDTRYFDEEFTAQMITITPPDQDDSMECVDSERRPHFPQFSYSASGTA

Row | IC50 [1] [µM] | IC50 [2] [nM] | IC50 [3] [µM] | IC50 [4] [nM] | Structure (SMILES)
1 | 37.1 | 529 | 12.3 | – | CNc1cc(-c2ccc(C(=O)N[C@@H]3CNCC[C@H]3c3ccc(Cl)cc3)o2)ncn1
2 | 0.39 | 8 | 0.12 | – | Cn1ncc(Cl)c1-c1cc(C(=O)N[C@@H]2CNCC[C@H]2c2cccc(C(F)(F)F)c2)oc1Cl
3 | 26.9 | 270 | 6.15 | – | Cn1ncc(Br)c1-c1ccc(C(=O)N[C@@H]2CNCC[C@H]2c2ccc(F)c(F)c2)cn1
4 | 2.56 | 13.7 | 4.28 | – | Cn1ncc(Cl)c1-c1ccc(C(=O)N[C@@H]2CNCC[C@H]2c2ccc(Cl)cc2)o1
5 | 34.7 | 215 | 6.12 | – | Cn1ncc(Cl)c1-c1ccc(C(=O)N[C@@H]2CNCC[C@H]2c2ccc(F)c(F)c2)cn1
6 | 9.88 | 27.3 | 2.18 | – | Cn1ncc(Cl)c1-c1ccc(C(=O)N[C@@H]2CNCC[C@H]2c2ccc(F)c(F)c2)cc1
7 | 0.78 | 12.4 | 0.99 | 160 | C=CC[C@@H]1C[C@@H](c2ccc(Cl)c(Cl)c2)[C@H](NC(=O)c2cc(-c3c(Cl)cnn3C)c(Cl)o2)CN1
8 | 3.04 | 212 | 6.2 | – | Cn1cc(-c2c(Cl)cnn2C)cc1C(=O)N[C@@H]1CNCC[C@H]1c1ccc(Cl)cc1
9 | 1.05 | 127 | 0.9 | – | Cn1ncc(Cl)c1-c1cc(C(=O)N[C@H]2CNCC[C@@H]2c2ccc(C(F)(F)F)cc2)oc1Cl
10 | 0.99 | 5.1 | 1.4 | – | Cn1ncc(Cl)c1-c1coc(C(=O)N[C@@H]2CNCC[C@H]2c2ccc(F)c(F)c2)c1
11 | – | 6.4 | – | – | Cn1ncc(Cl)c1-c1cc(C(=O)NC2CNCCC2c2ccc(F)c(F)c2)oc1Cl (racemic)
12 | – | 7.2 | – | – | Cn1ncc(Cl)c1-c1cc(C(=O)NC2CNCCC2c2ccc(C(F)(F)F)cc2)oc1Cl (centres undefined)
13 | 23.7 | > 1000 | 10 | – | Cn1cc(-c2coc(C(=O)N[C@@H]3CNCC[C@H]3c3ccc(Cl)cc3)c2)cn1
14 | 10.8 | 29.8 | 4.54 | – | Cn1ncc(Br)c1-c1oc(C(=O)N[C@@H]2CNCC[C@H]2c2ccc(Cl)cc2)cc1Br
15 | 1.87 | 17.3 | 1.32 | – | Cn1ncc(Cl)c1-c1cc(C(=O)N[C@@H]2CNCC[C@H]2c2ccc(Cl)cc2)oc1Cl
16 | 5.63 | 76.6 | 7.4 | – | Cn1nccc1-c1ccc(C(=O)N[C@@H]2CNCC[C@H]2c2cccc(F)c2)nc1
17 | 23 | > 1000 | 24.1 | – | O=C(N[C@@H]1CNCC[C@H]1c1ccc(Cl)cc1)c1ccc(-c2ncnc3c2CCC3O)s1 (some centres undefined)
18 | 9.43 | 102 | 8.99 | – | Cn1ncc(Cl)c1-c1cc(C(=O)N[C@@H]2CNCC[C@H]2c2cccc(F)c2)sc1Cl
19 | 9.56 | 230 | 6.09 | – | Cn1nccc1-c1ccc(C(=O)N[C@@H]2CNCC[C@H]2c2ccc(Cl)cc2)o1
20 | 2.81 | 222 | 3.51 | – | Cn1ncc(Cl)c1-c1cc(C(=O)N[C@@H]2CNCC[C@H]2c2ccc(F)c(F)c2)sc1Cl
21 | – | 17.6 | – | – | Cn1ncc(Cl)c1-c1cc(C(=O)NC2CNCCC2c2ccccc2)oc1Cl (centres undefined)
22 | – | 710 | – | – | Cn1nccc1-c1coc(C(=O)NC2CNCCC2c2ccccc2)c1 (centres undefined)
23 | 5.2 | – | – | 178 | NC1(C(=O)N[C@@H](CCO)c2ccc(Cl)cc2)CCN(c2nc[nH]c3nccc2-3)CC1 [CAPIVASERTIB]
24 | 6.25 | 182 | 1.92 | – | Cn1ncc(Br)c1-c1ccc(C(=O)N[C@@H]2CNCC[C@H]2c2cccc(F)c2)nc1

Row | IC50 [1] [µM] | IC50 [2] [nM] | IC50 [3] [µM] | IC50 [4] [nM] | Structure (SMILES)
25 | 11.7 | 40 | 6.05 | – | Cn1ncc(Cl)c1-c1oc(C(=O)N[C@@H]2CNCC[C@H]2c2ccc(Cl)cc2)cc1Br
26 | – | 17.3 | – | – | Cn1ncc(Cl)c1-c1cc(C(=O)NC2CNCCC2c2ccc(Cl)cc2)oc1Cl (centres undefined)
27 | 3.76 | 31.2 | 3.68 | – | Cn1ncc(Br)c1-c1ccc(C(=O)N[C@@H]2CNCC[C@H]2c2ccc(Cl)cc2)o1
28 | – | 191 | – | – | Cn1nccc1-c1coc(C(=O)NC2CNCCC2c2ccc(F)c(F)c2)c1 (racemic)
29 | 21.8 | 50.3 | 5 | – | O=C(N[C@@H]1CNCC[C@H]1c1ccc(Cl)cc1)c1ccc(-c2cn[nH]c2)o1
30 | 4.72 | 104 | 3.46 | – | Cn1ncc(Cl)c1-c1ccc(C(=O)N[C@@H]2CNCC[C@H]2c2cccc(F)c2)nc1
31 | 7.33 | 149 | 12.4 | – | Cn1ncc(Cl)c1-c1cc(C(=O)N[C@@H]2CNCC[C@H]2c2ccc(Cl)cc2)n(C)c1Cl
32 | 2.44 | 449 | 2.51 | – | Cn1ncc(Cl)c1-c1cc(C(=O)N[C@@H]2CNCC[C@H]2c2ccc(Cl)cc2)sc1Cl
33 | 2.31 | 35.6 | 9.01 | – | Cn1ncc(Br)c1-c1coc(C(=O)N[C@@H]2CNCC[C@H]2c2ccc(Cl)cc2)c1
34 | – | 1570 | – | – | Cn1ncc(Cl)c1-c1coc(C(=O)NC2CNCC2c2ccc(F)c(F)c2)c1 (racemic)
35 | 15.1 | > 1000 | 4.41 | – | Cn1cc(-c2ccc(C(=O)N[C@@H]3CNCC[C@H]3c3ccc(Cl)cc3)o2)cn1
36 | – | 538 | – | – | Cn1ncc(Cl)c1-c1cc(C(=O)NC2CNCC2c2ccc(C(F)(F)F)cc2)oc1Cl (centres undefined)
37 | 0.28 | 9.3 | 0.12 | – | Cn1ncc(Cl)c1-c1cc(C(=O)N[C@@H]2CNCC[C@H]2c2ccc(C(F)(F)F)cc2)oc1Cl
38 | – | 2.5 | – | – | Cn1ncc(Cl)c1-c1cc(C(=O)N[C@@H]2CNCC[C@@H]2c2ccc(F)c(F)c2)oc1Cl
39 | 1.75 | 322 | 1.15 | – | Cn1ncc(Cl)c1-c1cc(C(=O)N[C@@H]2CNCC[C@H]2c2ccc(Cl)c(C(F)(F)F)c2)sc1Cl
40 | – | 3650 | – | – | Cn1ncc(Br)c1-c1coc(C(=O)NC2CNCC2c2ccc(F)c(F)c2)c1 (racemic)
41 | 8.51 | 188 | 12.6 | – | Cn1nccc1-c1csc(C(=O)N[C@@H]2CNCC[C@H]2c2ccc(Cl)cc2)c1
42 | 1.56 | 29.4 | 3.5 | – | Cn1nccc1-c1coc(C(=O)N[C@@H]2CNCC[C@H]2c2ccc(Cl)cc2)c1
43 | 1.09 | 51.2 | 0.49 | – | Cn1ncc(Cl)c1-c1cc(C(=O)N[C@H]2CNCC[C@@H]2c2ccc(F)c(F)c2)oc1Cl
44 | 7.42 | 199 | 4.92 | – | Cn1ncc(Br)c1-c1cc(C(=O)N[C@@H]2CNCC[C@H]2c2ccc(Cl)cc2)n(C)c1Br
45 | 13.7 | 162 | 15 | – | Cn1nccc1-c1oc(C(=O)N[C@@H]2CNCC[C@H]2c2ccc(Cl)cc2)cc1Br
46 | 0.69 | 3.4 | 4.96 | – | CC(=O)OCC[C@@H]1C[C@@H](c2ccc(F)c(F)c2)[C@H](NC(=O)c2cc(-c3c(Cl)cnn3C)c(Cl)o2)CN1
47 | 22.2 | 73.5 | 2.9 | – | Cn1ncc(Br)c1-c1ccc(C(=O)N[C@@H]2CNCC[C@H]2c2ccc(F)c(F)c2)cc1
48 | 24.2 | 57.7 | 2.11 | – | Cn1nccc1-c1ccc(C(=O)N[C@@H]2CNCC[C@H]2c2ccc(F)c(F)c2)cn1
